Where two headings read alike, the source gives them in different places.
Tests used:
[1] = format: in vivo, rats
Description: The method is that described by Harris et al. (J. Pharmcol. Exp. Ther. 143 (1964) 141-148).
Male rats are used which have a weight of about 150-200 g and which have not been fasting. A point is chosen on the tail and this is irradiated by a heat source (75° C.) and the time (in seconds) for which the animal remains without moving its tail is measured.
A maximum period of time under the heat source of 8 seconds is chosen after which the animal is, in any case, removed in order to avoid tissue damage. The measurement is effected before (controls) and after treatment with the drugs. […] The percentage variation is calculated for each individual animal by the following formula: [formula] (time measurements are in seconds)
The measurements are carried out 10, 20, 30, 45, 60 and 90 minutes after treatment with the analgesics.

[2] = Randall-Selitto test: analgesia produced by opiates; format: in vivo, rats; settings: for t (vs controls): Student t
Description: Analgesic activity in the Randall-Selitto test
The method is that described by Winters et al (J. Pharmacol. Exp. Ther. 150, 165 (1965). Groups of five female rats having an average weight of about 100 g and which have not been fasting are used. A 20% saline solution of yeast is administered into the sub-plantar region of the right hind leg.
The compounds to be tested are administered s.c. 2 hours after the injection of inflammatory agent 0.5 hours after the administration of the drugs, the pain threshold is determined by measuring the pressure needed to induce a flight reaction in the animal. The results obtained are given in Table No. 3 which records the groups treated and the doses administered, the pain threshold expressed as a pressure exerted in mmHg to cause the pain stimulus (average±S.E.) and a statistical evaluation of the results of the various treated groups by the Student "t" test.

in vivo = settings: mouse, sc
Description: The drug (or drugs) under examination was administered sub-cutaneously. The animals were kept under observation for 15 days after the administration.
Ten animals were used for each dose.

[3] = Hot plate test: potentiation of analgesic activity of opiates; format: in vivo, rats; settings: morphine 2.5 or methadone 1 mg/kg s.c. alone
Description: The method is that described by Eddy et al. (J. Pharmac. Exp. Therm. 107, 385 (1953)).
Groups of five male rats having a weight of about 150 g and which have not been fasting are used.
The animals are placed on a metal plate which is on the bottom of a transparent cylinder heated to 55°±1° C. by an azeotropic boiling mixture (1:1 acetone-ethyl formate). The time which passes between the moment at which the animal is placed on the hot plate and the moment at which it licks its feet or tries to jump out of the cylinder is defined as the reaction time. The control reaction time is measured 10 and 5 minutes before the administration of the drugs and 10, 20, 30, 45, 60, 90 minutes afterwards. The animals are left on the plate for a maximum period of 30 seconds. The response to the administration of the product is considered positive if at least a doubling of the normal reaction time is seen. The results obtained are given in Table 2 which records the groups treated, the doses administered and the stay times on the plate expressed as the number of positive responses over the number treated.

[4] = format: in vivo, rats; settings: morphine 5 mg/kg i.p. repeated
Description: Activity of proglumide as an antagonist to the tolerance induced by opiates
Groups of five male rats having a weight of about 200-250 g were used.
The determination of the pain threshold was effected 1, 3, 6, 9 and 12 hours after the first treatment by the Tail Flick test.
The data given in Table 5 indicate the percentage variations in the latency (appearance of pain) before and after treatment with the drugs.

[5] = Potentiation of analgesic effect of enkephalinamide (DALA) i.c.v. (Tail Flick test); format: in vivo, rats; settings: alone i.c.v.: proglumide 1 or DALA 10 μg/kg
Description: Potentiation of the analgesic activities of enkephalins induced by proglumide
In order to check one of the possible mechanisms for the action of proglumide, that is its possible inhibition of the enzymatic degradation of endogenous enkephalins, the following experiment was carried out:
A cannula was implanted in the right lateral ventricle of male rats having a weight of 150-200 g (groups of five animals were used) in order to allow the intracerebroventricular (I.C.V.) administration of drugs according to the method of Noble et al (Life Science 6, (1970) 281-291). […]

[6] = higher dose alone s.c.: morphine 2, propoxyphene 25, pentazocine 6 mg/kg
[7] = lower dose alone s.c.: morphine 0.5, propoxyphene 7.5, pentazocine 2 mg/kg

CCC(=O)O[C@](Cc1ccccc1)(c1ccccc1)[C@H](C)CN(C)C [Dextropropoxyphene]
X, potency ratio with respect to morphine = 1 ([1]; rat, in vivo): 1
average percentage variation in latency M (1-90') ± S.E. ([1]; rat, in vivo): 33.48 ± 7.16
t (vs controls) [2, 6]: 3.71
t (vs controls) [2, 7]: 3.34
P (vs controls) [2, 6]: < 0.01
Pain threshold (mmHg) M ± S.E. [2, 6]: 50.7 ± 10.02 mmHg
P (vs controls) [2, 7]: < 0.05
Pain threshold (mmHg) M ± S.E. [2, 7]: 37.5 ± 7.12 mmHg

CCC(=O)C(CC(C)N(C)C)(c1ccccc1)c1ccccc1 (centres unmarked) [Methadone]
LD50 at 360 h (in vivo): 53.5 mg/kg
positive responses / treated ([3]; 10 min): 1/5
positive responses / treated ([3]; 20 min): 2/5
positive responses / treated ([3]; 30 min): 1/5
positive responses / treated ([3]; 45 min): 2/5
positive responses / treated ([3]; 60 min): 1/5
positive responses / treated ([3]; 90 min): 1/5
A* = Tot. positive X/30 ([3]; total over 10-90 min): 8

CN1CC[C@]23c4c5ccc(O)c4O[C@H]2[C@@H](O)C=C[C@H]3[C@H]1C5 [Morphine]
percentage variation in the latency ([4]; 1 h): 58.98 ± 16.3%
percentage variation in the latency ([4]; 3 h): 67.58 ± 11.1%
percentage variation in the latency ([4]; 6 h): 30.0 ± 15.3%
percentage variation in the latency ([4]; 9 h): 38.62 ± 8.7%
percentage variation in the latency ([4]; 12 h): 23.1 ± 8.6%
percentage variation in the latency of the pain sensation ([1]; 10 min, morphine 3 or dextropropoxyphene 6 mg/kg alone): 29.0 ± 20.4%
percentage variation in the latency of the pain sensation ([1]; 20 min, morphine 3 or dextropropoxyphene 6 mg/kg alone): 35.0 ± 9.4%
percentage variation in the latency of the pain sensation ([1]; 30 min, morphine 3 or dextropropoxyphene 6 mg/kg alone): 71.4 ± 12.1%
percentage variation in the latency of the pain sensation ([1]; 45 min, morphine 3 or dextropropoxyphene 6 mg/kg alone): 49.3 ± 21.3%
percentage variation in the latency of the pain sensation ([1]; 60 min, morphine 3 or dextropropoxyphene 6 mg/kg alone): 38.8 ± 23.9%
percentage variation in the latency of the pain sensation ([1]; 90 min, morphine 3 or dextropropoxyphene 6 mg/kg alone): 38.3 ± 20.1%
average percentage variation in latency M (1-90') ± S.E. ([1]; mean 1-90 min, morphine 3 or dextropropoxyphene 6 mg/kg alone): 43.62 ± 7.37%

CC(C)=CCN1CCC2(C)c3cc(O)ccc3CC1C2C (centres unmarked) [Pentazocine]
t (vs controls) [2, 6]: 6.63
t (vs controls) [2, 7]: 2.50
P (vs controls) [2, 6]: < 0.001
Pain threshold (mmHg) M ± S.E. [2, 6]: 48.6 ± 4.93 mmHg
P (vs controls) [2, 7]: < 0.05
Pain threshold (mmHg) M ± S.E. [2, 7]: 27.9 ± 5.71 mmHg

D-ala-methionine-enkephalinamide [DALA]
% variation in the latency to pain ([5]; 5 min): 61.06 ± 11.8%
% variation in the latency to pain ([5]; 15 min): 51.04 ± 4.6%
% variation in the latency to pain ([5]; 30 min): 40.00 ± 9.04%
% variation in the latency to pain ([5]; 45 min): 25.24 ± 7.7%
% variation in the latency to pain ([5]; 60 min): 14.68 ± 9.2%
% variation in the latency to pain ([5]; 90 min): 10.06 ± 8.3%
Average (0 → 90) % variation in the latency to pain [5]: 33.7 ± 8.3%
